Measurements as given in PMC10747430, “^99mTc-Labeled Cyclic Peptide Targeting PD-L1 as a Novel Nuclear Imaging Probe” (Pharmaceutics, 2023).

Columns and labels:
[1] = Reversed-phase radio-HPLC retention time (lipophilicity); assay type: physicochemical; conditions: µBondapak C18 3.9 mm × 30 cm, linear gradient 0.1% TFA-acetonitrile / 0.1% TFA-water in 20 min; used as measure of lipophilicity
Protocol: For quality control of the [^99mTc]Tc-iPD-L1 and [^99mTc]Tc-WL12 formulations, parameters such as appearance (clear solution), pH (neutral), sterility, absence of bacterial endotoxins, and radiochemical purity (radio-HPLC; Waters Corporation, Milford, CT, USA; 3.9 mm × 30 cm µBondapak™ C18 column; linear gradient system; solvent A: 0.1% TFA-acetonitrile and solvent B: 0.1% TFA-water, from 100 to 30% of A in 20 min) were evaluated according to the Mexican Pharmacopoeia, in its section on “General Methods of Analysis” (MGA). The retention time of [^99mTc]Tc-WL12 was 15.0 ± 0.3 min and 15.5 ± 0.2 min for [^99mTc]Tc-iPD-L1, while the retention times of ^99mTcO4^− and [^99mTc]Tc-EDDA/tricine were 3.5 ± 0.2 min and 4.5 ± 0.2 min, respectively.
The radiochemical purities of [^99mTc]Tc-iPD-L1 and [^99mTc]Tc-WL12 were 95.5 ± 1.5% without the need for additional purification, as determined by reversed-phase radio-HPLC (Figure 8). As expected, the retention time of [^99mTc]Tc-iPD-L1 was higher than that of [^99mTc]Tc-WL12, which is associated with their CLogP values of 6.38 and 5.78, respectively.
Figure 8 Radio-chromatogram of (a) [^99mTc]Tc-iPD-L1 and (b) [^99mTc]Tc-WL12. Reversed-phase column (C18, 3.9 × 300 mm, 10µm particle size).

[2] = biological target: T1, human recombinant PD-L1 protein (Homo sapiens, UniProt Q9NZQ7); assay: Radio-SDS-PAGE molecular recognition by PD-L1 protein; assay type: binding; conditions: radiopeptide (1 mg/mL) incubated with PD-L1 (200 µg/mL) 30 min at 37 °C; 15% SDS-PAGE, radio-TLC scan
T1 construct: purchased FineTest P6857
T1 sequence (Q9NZQ7 19-290): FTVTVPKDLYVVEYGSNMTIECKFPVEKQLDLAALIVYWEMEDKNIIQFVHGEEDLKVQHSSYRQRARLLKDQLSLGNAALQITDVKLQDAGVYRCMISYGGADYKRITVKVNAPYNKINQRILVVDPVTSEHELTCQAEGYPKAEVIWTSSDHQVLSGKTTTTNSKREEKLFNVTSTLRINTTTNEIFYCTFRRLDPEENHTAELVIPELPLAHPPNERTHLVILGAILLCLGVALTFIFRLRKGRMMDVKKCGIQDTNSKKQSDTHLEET
Protocol: SDS-PAGE gel electrophoresis was performed. Radioactivity distribution was determined using a radio-TLC scanner (Mini-Gita, 60–150 keV, BGO-Crystal, window 25 × 2 mm, thickness 5 mm, resolution optimized for Tc-99m; RayTest, Munich, Germany) to detect [^99mTc]Tc-iPD-L1 and [^99mTc]Tc-WL12 binding to PD-L1 protein.
Briefly, ^99mTc-labeled WL12 and iPD-L1 solutions (100 µL) (1 mg/mL peptide) were incubated with human recombinant PD-L1 protein (100 µL) (200 µg/mL; FineTest; Cat: P6857) (radiopeptide-PD-L1 interaction) or human integrin αVβ3 protein (100 µL) (negative control; 200 µg/mL) (Chemicom, Merck; Burlington, MA, USA) (radiopeptide-integrin interaction) for 30 min at 37 °C, after which the samples were diluted with Laemmli sample buffer (containing 10% SDS, Tris-Cl 125 mM, pH = 6.8, 12.5% glycerol and 0.005% bromophenol blue after dye) to give final protein concentrations of 25 µg/mL. […] Finally, the radioactivity distribution on the gels was scanned using a radio-TLC detector to determine the percentage of [^99mTc]Tc-iPD-L1 or [^99mTc]Tc-WL12 radioactivity associated with proteins.
In vitro-specific recognition of [^99mTc]Tc-iPD-L1 and [^99mTc]Tc-WL12 by the PD-L1 protein was performed using a combination of radio-TLC and SDS-PAGE (radio-SDS-PAGE). […] Therefore, the radioactivity associated with free peptides is in the front of the gel plate (around 60–70 mm). […]

[3] = tested on: HCT116 cells (PD-L1 positive); assay: Cellular uptake and internalization, HCT116; assay type: cell-based, human; conditions: HCT116, 1 × 10^6 cells/tube, 7.4 kBq, 37 °C, 1 h, n = 3
Protocol: Human colorectal cancer HCT116 (PD-L1 positive: 45.1 nTPM), human lung cancer HCC827 (PD-L1 positive: 27.1 nTPM), and […] C6 glioma cells (PD-L1 negative control) were obtained from ATCC (Atlanta, GA, USA). FBS, RPMI, and cell culture medium were obtained from Bovine and Biology (CDMX, MX). Cells were cultured in RPMI medium (5% CO2; 100 µg/mL penicillin, 15% fetal bovine serum, and 100 µg/mL streptomycin; 37 °C).
Cells diluted in phosphate-buffered saline (PBS) (pH 7.4) (1 × 10^6 cells/tube) received three different treatments: (a) [^99mTc]Tc-iPD-L1 (7.4 kBq) (n = 3), (b) and [^99mTc]Tc-WL12 (7.4 kBq) (n = 3), and (c) ^99mTcO4Na (7.4 kBq) (n = 3). Cells were incubated with each treatment at 37 °C for one hour. After incubation, tubes were measured in a NaI(Tl) detector (NML Inc., Houston, TX, USA) to establish the initial or first activity (100%). The tubes were spun at 500 g for 10 min, rinsed once with PBS, and spun once more. The liquid was removed, and the activity in the button was determined, indicating the percentage of cellular uptake (surface uptake) regarding the initial or first activity. Acetic acid/0.5 M NaCl was added, the tubes were centrifuged, and the activity was measured. The liquid was removed, and activity in button activity represented the percentage of activity internalized by cells relative to uptake activity (internalization fraction of surface uptake). […]

## CCCC[C@H]1C(=O)N(C)[C@@H](CCCC)C(=O)N[C@@H](CCCNC(=O)c2ccc(NN)nc2)C(=O)N[C@H](C(=O)NCC(N)=O)CSCC(=O)N[C@@H](Cc2ccc(O)cc2)C(=O)N(C)[C@@H](C)C(=O)N[C@@H](CC(N)=O)C(=O)N2CCC[C@H]2C(=O)N[C@@H](Cc2c[nH]cn2)C(=O)N[C@@H](CC(C)C)C(=O)N2C[C@H](O)C[C@H]2C(=O)N[C@@H](Cc2c[nH]c3ccccc23)C(=O)N[C@@H](CO)C(=O)N[C@@H](Cc2cn(C)c3ccccc23)C(=O)N1C [[^99mTc]Tc-WL12, metal not drawn]
[1]
  retention time, reversed-phase radio-HPLC: 15.0 ± 0.3 min
[2]
  radioactivity detected at the distance associated with the PD-L1 protein: 14%
[3]
  uptake and internalization compared to C6 cells (PD-L1 negative): significantly higher
